Measured values published in ChEMBL document CHEMBL5113512, “β-Nitrostyrene derivatives as broad range potential antifungal agents targeting fungal cell wall” (2022).
Converted amounts (≈) assume the structure as drawn. The source made the active and inactive calls. The calls are words filed in the database; no cut-off is given here.

How the values were obtained:
[Candida] auris [1] = Induction of ROS generation in Candida auris CBS10913 at sub-inhibitory concentration incubated for 1 hr by DCFDA staining-based flow cytometric analysis; format: functional, organism-based; conditions: Candidozyma auris
[Candida] auris [2] = Antifungal activity against wild type Candida auris 102 assessed as inhibition of fungal growth by broth microdilution method; format: functional; conditions: Candidozyma auris
Candida tropicalis = test: Antifungal activity against Candida tropicalis ATCC 750 assessed as inhibition of fungal growth by broth microdilution method; format: functional
Candida [3] = test: Upregulation of HYM1 gene expression in Candida cells; format: functional, cell-based
Candida [4] = test: Downregulation of VTC3 gene expression in Candida cells; format: functional, cell-based
Candida albicans [5] = test: Upregulation of NAG4 gene expression in Candida albicans ATCC 24433 by qRT-PCR analysis; format: functional
Candida albicans [6] = test: Synergistic antifungal activity against wild type Candida albicans SN152 assessed as fractional inhibitory concentration index incubated for 48 hrs in presence of Caspofungin by checker board assay; format: functional
[Candida] auris [7] = Antifungal activity against Candida auris 102 assessed as inhibition of fungal growth by broth microdilution method; format: functional; conditions: Candidozyma auris
Candida [8] = test: Upregulation of VPH2 gene expression in Candida cells; format: functional, cell-based
Candida albicans [9] = test: Synergistic antifungal activity against wild type Candida albicans SN152 assessed as Amphotericin B MIC incubated for 48 hrs by checker board assay; format: functional
Candida [10] = test: Downregulation of GIT3 gene expression in Candida cells; format: functional, cell-based
Candida albicans [11] = test: Synergistic antifungal activity against wild type Candida albicans SN152 assessed as inhibition of fungal growth incubated for 48 hrs in presence of Amphotericin B by checker board assay; format: functional
[Candida] auris [12] = Synergistic antifungal activity against Candida auris CBS10913 assessed as Calcoflour White MIC incubated for 48 hrs by checker board assay; format: functional; conditions: Candidozyma auris
Candida [13] = test: Downregulation of VPS34 gene expression in Candida cells; format: functional, cell-based
[Candida] auris [14] = Induction of ROS generation in Candida auris CBS10913 assessed as increase in relative fluorescence unit at sub-inhibitory concentration incubated for 1 hr by DCFDA staining-based flow cytometric analysis; format: functional, organism-based; conditions: Candidozyma auris
Candida albicans [15] = test: Induction of ROS generation in Candida albicans ATCC 24433 assessed as increase in relative fluorescence unit at sub-inhibitory concentration incubated for 1 hr by DCFDA staining-based flow cytometric analysis; format: functional, organism-based
Candida parapsilosis [16] = test: Synergistic antifungal activity against Candida parapsilosis ATCC 90018 assessed as inhibition of fungal growth incubated for 48 hrs in presence of Congo red by checker board assay; format: functional; conditions: Lodderomyces parapsilosis
Candida parapsilosis [17] = test: Antifungal activity against Candida parapsilosis ATCC 90018 assessed as inhibition of fungal growth by broth microdilution method; format: functional; conditions: Lodderomyces parapsilosis
Candida parapsilosis [18] = test: Synergistic antifungal activity against Candida parapsilosis ATCC 90018 assessed as inhibition of fungal growth incubated for 48 hrs in presence of SDS by checker board assay; format: functional; conditions: Lodderomyces parapsilosis
Candida albicans [19] = test: Antifungal activity against Candida albicans ATCC 24433 overexpressing AD(1-8)u-assessed as inhibition of fungal growth by broth microdilution method; format: functional
Candida [20] = test: Downregulation of RBT1 gene expression in Candida cells; format: functional, cell-based
Candida albicans [21] = test: Antifungal activity against wild type Candida albicans SN152 assessed as inhibition of fungal growth by broth microdilution method; format: functional
Candida [22] = test: Downregulation of CLN3 gene expression in Candida cells; format: functional, cell-based
Cell membrane = test: Disruption of membrane integrity in Candida albicans ATCC 24433 assessed as cell shrinkage and lysis by measuring leakage of intracellular material measured after 6 hrs by SEM analysis; format: subcellular
Candida [23] = test: Downregulation of TCP1 gene expression in Candida cells; format: functional, cell-based
Candida [24] = test: Downregulation of CCT2 gene expression in Candida cells; format: functional, cell-based
Candida albicans [25] = test: Synergistic antifungal activity against Candida albicans ATCC 24433 assessed as fractional inhibitory concentration index incubated for 48 hrs in presence of caspofungin by checker board assay; format: functional
[Candida] auris [26] = Synergistic antifungal activity against Candida auris CBS10913 assessed as SDS MIC incubated for 48 hrs by checker board assay; format: functional; conditions: Candidozyma auris
Candida albicans [27] = test: Synergistic antifungal activity against Candida albicans SN152 harboring CAS5 mutant assessed as fluconazole MIC incubated for 48 hrs by checker board assay; format: functional
Candida albicans [28] = test: Synergistic antifungal activity against Candida albicans ATCC 24433 overexpressing ADCDR1-GFP assessed as fractional inhibitory concentration index incubated for 48 hrs in presence of caspofungin by checker board assay; format: functional
Candida albicans [29] = test: Inhibition of drug efflux in Candida albicans ATCC 24433 overexpressing AD(1-8)u- assessed as […] in nile red efflux incubated for 30 mins by flow cytometry; format: functional
Candida albicans [30] = test: Antifungal activity against Candida albicans SN152 harboring CAS5 mutant assessed as inhibition of fungal growth by broth microdilution method; format: functional
Candida albicans [31] = test: Inhibition of drug efflux in Candida albicans ATCC 24433 overexpressing ADPDR5-GFP assessed as reduction in rhodamine 6g efflux preincubated for 45 mins followed by substrate addition and measured after 30 mins; format: functional; conditions: dose 0.1-100 µg/ml, time 75.0 min, DDE = dose-dependent effect
Candida albicans [32] = test: Inhibition of drug efflux in Candida albicans ATCC 24433 overexpressing ADCDR1-GFP assessed as reduction in rhodamine 6g efflux preincubated for 45 mins followed by substrate addition and measured after 30 mins; format: functional; conditions: dose 0.1-100 µg/ml, time 75.0 min, DDE = dose-dependent effect
Candida [33] = test: Downregulation of CCW14 gene expression in Candida cells; format: functional, cell-based
Candida [34] = test: Downregulation of RLM1 gene expression in Candida cells; format: functional, cell-based
Candida albicans [35] = test: Synergistic antifungal activity against Candida albicans ATCC 24433 assessed as inhibition of fungal growth incubated for 48 hrs in presence of Congo red by checker board assay; format: functional
Candida [36] = test: Downregulation of RIO2 gene expression in Candida cells; format: functional, cell-based
Candida [37] = test: Downregulation of CDC42 gene expression in Candida cells; format: functional, cell-based
Candida [38] = test: Upregulation of PLB5 gene expression in Candida cells; format: functional, cell-based
Candida albicans [39] = test: Antifungal activity against Candida albicans ATCC 24433 overexpressing ADPDR5-GFP assessed as inhibition of fungal growth by broth microdilution method; format: functional
Candida albicans [40] = test: Antifungal activity against Candida albicans ATCC 24433 assessed as inhibition of fungal growth by broth microdilution method; format: functional
[Candida] auris [41] = Antifungal activity against Candida auris 118 assessed as inhibition of fungal growth by broth microdilution method; format: functional; conditions: Candidozyma auris
Candida [42] = test: Downregulation of STT4 gene expression in Candida cells; format: functional, cell-based
Candida [43] = test: Downregulation of SSZ1 gene expression in Candida cells; format: functional, cell-based
Candida albicans [44] = test: Downregulation of ATO5 gene expression in Candida albicans ATCC 24433 by qRT-PCR analysis; format: functional
Candida albicans [45] = test: Synergistic antifungal activity against Candida albicans SN152 harboring CAS5 mutant assessed as fractional inhibitory concentration index incubated for 48 hrs in presence of Amphotericin B by checker board assay; format: functional
Candida albicans [46] = test: Synergistic antifungal activity against wild type Candida albicans SN152 assessed as inhibition of fungal growth incubated for 48 hrs in presence of Caspofungin by checker board assay; format: functional
Candida [47] = test: Downregulation of CCT3 gene expression in Candida cells; format: functional, cell-based
Candida albicans [48] = test: Synergistic antifungal activity against wild type Candida albicans SN152 assessed as fractional inhibitory concentration index incubated for 48 hrs in presence of fluconazole by checker board assay; format: functional

In the case of O=[N+]([O-])/C=C/c1ccc(O)cc1, the Activity ([Candida] auris [1]) was “Active”, the MIC80 ([Candida] auris [2]) was 2 µg/mL (≈ 12.1 µM) and the MIC80 (Candida tropicalis) was 4 µg/mL (≈ 24.2 µM). For the same compound, the Activity (Candida [3]) was “Active”, the Activity (Candida [4]) was “Active” and the Activity (Candida albicans [5]) was “Active”. For the same compound, the “fractional inhibitory concentration index (FICI)” value (Candida albicans [6]) was 0.257, the MIC80 ([Candida] auris [7]) was 4 µg/mL (≈ 24.2 µM) and the Activity (Candida [8]) was “Active”. The MIC (Candida albicans [9]) was 0.25 µg/mL, the Activity (Candida [10]) was “Active” and the MIC (Candida albicans [11]) was 0.0625 µg/mL. For the same compound, the MIC ([Candida] auris [12]) was 25 µg/mL, the Activity (Candida [13]) was “Active” and the Activity ([Candida] auris [14]) was “Active”. The Activity (Candida albicans [15]) was “Active”, the MIC (Candida parapsilosis [16]) was 0.0312 µg/mL and the MIC80 (Candida parapsilosis [17]) was 8 µg/mL (≈ 48.4 µM). For the same compound, the MIC (Candida parapsilosis [18]) was 1 µg/mL, the MIC80 (Candida albicans [19]) was 4 µg/mL (≈ 24.2 µM) and the Activity (Candida [20]) was “Active”. For the same compound, the MIC80 (Candida albicans [21]) was 8 µg/mL (≈ 48.4 µM), the Activity (Candida [22]) was “Active” and the Activity (Cell membrane) was “Active”. The Activity (Candida [23]) was “Active”, the Activity (Candida [24]) was “Active” and the “fractional inhibitory concentration index (FICI)” value (Candida albicans [25]) was less than 3.5. The MIC ([Candida] auris [26]) was 60 µg/mL, the MIC (Candida albicans [27]) was 0.125 µg/mL and the “fractional inhibitory concentration index (FICI)” value (Candida albicans [28]) was less than 0.5. The inhibition (Candida albicans [29]) was “Active”, the MIC80 (Candida albicans [30]) was 2 µg/mL (≈ 12.1 µM) and the inhibition (Candida albicans [31]) was “Dde”. For the same compound, the inhibition (Candida albicans [32]) was “Dde”, the Activity (Candida [33]) was “Active” and the Activity (Candida [34]) was “Active”. The MIC (Candida albicans [35]) was 0.5 µg/mL, the Activity (Candida [36]) was “Active” and the Activity (Candida [37]) was “Active”. For the same compound, the Activity (Candida [38]) was “Active”, the MIC80 (Candida albicans [39]) was 4 µg/mL (≈ 24.2 µM) and the MIC80 (Candida albicans [40]) was 4 µg/mL (≈ 24.2 µM). For the same compound, the MIC80 ([Candida] auris [41]) was 4 µg/mL (≈ 24.2 µM), the Activity (Candida [42]) was “Active” and the Activity (Candida [43]) was “Active”. The Activity (Candida albicans [44]) was “Active”, the “fractional inhibitory concentration index (FICI)” value (Candida albicans [45]) was 0.515 and the MIC (Candida albicans [46]) was 0.0625 µg/mL. For the same compound, the Activity (Candida [47]) was “Active” and the “fractional inhibitory concentration index (FICI)” value (Candida albicans [48]) was 0.25.
